Measured values taken from article PMC12516557, “Isolation and characterization of peroxidase from potato leaves Solanum tuberosum: Application in glucose diagnostic kit” (Journal of Genetic Engineering & Biotechnology, 2025).

Tested on: T1, potato leaves peroxidase (PLPOD)
T1 construct: gene POD; native enzyme from mature leaves (Nile Delta, Egypt); CM-cellulose and Sephacryl S-300; 64 kDa by gel filtration; 3 activity bands ~40-65 kDa on SDS-PAGE
Assay: guaiacol oxidation at […] nm, Lineweaver-Burk plot
Format: biochemical, Solanum tuberosum
Conditions: co-substrate H2O2; sodium acetate buffer pH 5.6 (general assay); mixture of isoenzymes; discussion b65 prints 0.066 mM

- Km: 67 µM
Compound: COc1ccccc1O [guaiacol]
